Measured values: patent EP1004317A1, “REMEDIES FOR DISEASES ASSOCIATED WITH BONE RESORPTION” (CHUGAI SEIYAKU KABUSHIKI KAISHA, priority 1997, dated 1999)
Structures can show the parent of a compound that is named as a salt. Marks after values point to notes of the source that are not given here.

Key:
ovariectomized rats [1] = experiment: Effect on ovariectomized rats: lumbar bone density; assay type: in vivo, Female Wistar-Imamichi rats; details: sham group = 100%, control OVX group 85.2%
Source text: (§1) Female Wistar-Imamichi rats were subjected to ovariectomy (OVX). As test drugs, use was made of L-N-6-(1-iminoethyl)lysine hydrochloride (NIL) and S-ethylisothiourea (EIT) which are known as selective iNOS inhibitors. […] To confirm the validity of the test system, 17-β-estradiol (βE2) was also employed.
(§2) One day after OVX, the rats were divided into 7 groups each having 7 animals. The administration of the drug was started on the day 4 after OVX. As a control, a sham group (7 animals) was also employed. NIL was orally administered in a dose of 0.1 or 0.02 mg/kg (0.1 ml per 100 g of body weight) 5 times per week for 10 weeks.
In this graph, the data are expressed in "mean ± standard deviation". According to Dunnet's multiple comparison method, the statistically significant differences from the control ovariectomy group are expressed as follows: • **: p < 0.01, ***: p < 0.001.

ovariectomized rats [2] = experiment: Effect on ovariectomized rats: biochemical parameter of urine (bone resorption marker); assay type: in vivo, Female Wistar-Imamichi rats; details: for D-pyr/Cre: OVX rats, urine collected after the final administration, mean ± standard deviation, n = 7, control OVX 11.83 ± 2.02
Source text: as §1, §2
According to Dunnet's multiple comparison method, the statistically significant differences from the control ovariectomy group are expressed as follows: **: p < 0.01, ***: p < 0.001.
Number of animals/group = 7. Mean ± standard deviation.

nNOS/iNOS = details: cited from earlier work
eNOS/iNOS = details: cited from earlier work
cNOS/iNOS = details: cited from earlier work

Structure (SMILES)	lumber bone density (ovariectomized rats [1]; EIT administration group, 24 hours after the final administration, p < 0.01) [%]	excretion of deoxypyridinoline (D-pyr) versus control OVX group (in words) (ovariectomized rats [2]; EIT administration group, no statistically significant difference)	D-pyr/Cre (ovariectomized rats [2]; dose 0.1 mg/kg)	nNOS/iNOS (NOS inhibitory activity expressed in the ratio of IC50) (nNOS/iNOS)	eNOS/iNOS (NOS inhibitory activity expressed in the ratio of IC50) (eNOS/iNOS)	lumber bone density (ovariectomized rats [1]; 0.02 mg/kg orally, 5 times per week for 10 weeks) [%]	lumber bone density (ovariectomized rats [1]; 0.1 mg/kg orally, 5 times per week for 10 weeks) [%]	excretion of deoxypyridinoline (D-pyr), acceleration versus control OVX group (in words) (ovariectomized rats [2]; 0.02 mg/kg, p < 0.01)	D-pyr/Cre (ovariectomized rats [2]; dose 0.02 mg/kg)	cNOS/iNOS (NOS inhibitory activity expressed in the ratio of IC50) (cNOS/iNOS)
CCSC(=N)N [EIT, S-ethylisothiourea]	92.6	a tendency toward decrease	9.95 ± 1.71	19.23	28.46	–	–	–	–	–
CC(=N)NCCCC[C@H](N)C(=O)O [NIL, L-N-6-(1-iminoethyl)lysine hydrochloride]	–	–	10.43 ± 1.15	–	–	86.8	90.2	significantly inhibited	8.70 ± 1.59**	28
C[C@]12CC[C@@H]3c4ccc(O)cc4CC[C@H]3[C@@H]1CC[C@@H]2O [βE2, 17-β-estradiol]	–	–	–	–	–	–	–	–	4.16 ± 1.45**	–
